As usually defined, the inhibition is the share of the control response that was lost under treatment. As a reminder, the IC50 is the midpoint of a concentration-inhibition curve.

For one test, the target named is T1, human CB2 receptor (Homo sapiens, UniProt P34972).
T1 construct: expressed in transfected cells; host or cells: SK-N-MC cells, stably transfected with pcDNA3 CB-2 (human); semi-purified membrane pellet
Kind of test: Binding assay for CB2, radioligand [3H]-CP-55,940 displacement on membranes of transfected SK-N-MC cells. Particulars: test concentration of 0.2 μM; human CB2 in SK-N-MC membranes; read-out: Cannabinoid CB2 Receptor Binding Inhibition (%). The method, then:
(§1) Binding Assay for CB1 or CB2 Agonists or Inverse Agonists
(§2) The human CB1 and CB2 receptors were stably expressed in SK-N-MC cells transfected with pcDNA3 CB-1 (human) or pcDNA3 CB-2 (human). The cells were grown in T-180 cell culture flasks under standard cell culture conditions at 37° C. in a 5% CO2 atmosphere. The cells were harvested by trysinization and homogenized in a homogenization buffer (10 mM Tris, 0.2 mM MgCl2, 5 mM KCl, with protease inhibitors aprotinin, leupeptin, pepstatin A and bacitracin) and centrifuged (2000 g). The supernatant was then centrifuged in 2M sucrose (31,300 g) to produce a semi-purified membrane pellet. The pellet was resuspended in homogenization and stored at −80° C.
(§3) On the day of the assay, the pellet was thawed on ice and diluted in assay buffer (50 mM Tris-HCl, 5 mM MgCl2, 2.5 mM EDTA, 0.5 mg/mL fatty acid free bovine serum albumin, pH 7.5). The diluted membrane pellet was added with buffer, either a test compound or vehicle standard and a the radioligand [H]^3+-CP-55,940 (0.2 nM) to the wells of a 96-well polypropylene plate. Non-specific binding was measured in wells containing WIN 55,212 (10 uM). The plate was covered and incubated for 90 minutes at 30° C. The contents were then aspirated onto a Packard Unifilter GF/C filter bottom plate prewet with 0.5% polyethyleneimine. The wells of the polypropylene plate were rinsed and aspirated seven times with a 0.9% saline-0.5% Tween 20 solution. The Unifilter plate was dried, a scintillation cocktail was added to each well and the counts representing binding were quantitated in a TopCount scintillation counter.
(§4) For compounds tested, an IC50 binding value was obtained from percent inhibition studies in which various test concentrations were used. The binding value (in μM) was calculated by linear regression.
(§5) For compounds without an IC50 binding value, the percent inhibition (%) was obtained at a test concentration of 0.2 μM.

The next test concerns the target T2, human CB1 receptor (Homo sapiens, UniProt P21554).
T2 construct: expressed in transfected cells; host or cells: SK-N-MC cells, stably transfected with pcDNA3 CB-1 (human); semi-purified membrane pellet
Kind of test: Binding assay for CB1, radioligand [3H]-CP-55,940 displacement on membranes of transfected SK-N-MC cells. Particulars: for IC50: human CB1 in SK-N-MC membranes, [3H]-CP-55,940 0.2 nM, calculated by linear regression, read-out: Cannabinoid CB1 Receptor Binding IC50. Here is the method:
as §1, §2, §3, §4, §5

T2 sequence (P21554 whole entry): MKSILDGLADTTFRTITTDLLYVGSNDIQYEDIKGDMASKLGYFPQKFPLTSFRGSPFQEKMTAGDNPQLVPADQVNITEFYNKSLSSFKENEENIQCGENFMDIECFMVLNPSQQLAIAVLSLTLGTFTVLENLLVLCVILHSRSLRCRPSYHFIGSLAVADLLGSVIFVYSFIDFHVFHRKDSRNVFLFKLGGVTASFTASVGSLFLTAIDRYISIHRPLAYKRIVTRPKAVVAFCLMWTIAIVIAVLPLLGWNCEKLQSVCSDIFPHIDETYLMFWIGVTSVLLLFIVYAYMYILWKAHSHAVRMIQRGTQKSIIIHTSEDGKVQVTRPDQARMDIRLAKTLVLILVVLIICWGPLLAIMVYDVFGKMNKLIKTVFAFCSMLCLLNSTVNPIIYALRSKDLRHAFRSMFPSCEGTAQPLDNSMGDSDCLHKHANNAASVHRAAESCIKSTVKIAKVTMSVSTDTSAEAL
T1 sequence (P34972 whole entry): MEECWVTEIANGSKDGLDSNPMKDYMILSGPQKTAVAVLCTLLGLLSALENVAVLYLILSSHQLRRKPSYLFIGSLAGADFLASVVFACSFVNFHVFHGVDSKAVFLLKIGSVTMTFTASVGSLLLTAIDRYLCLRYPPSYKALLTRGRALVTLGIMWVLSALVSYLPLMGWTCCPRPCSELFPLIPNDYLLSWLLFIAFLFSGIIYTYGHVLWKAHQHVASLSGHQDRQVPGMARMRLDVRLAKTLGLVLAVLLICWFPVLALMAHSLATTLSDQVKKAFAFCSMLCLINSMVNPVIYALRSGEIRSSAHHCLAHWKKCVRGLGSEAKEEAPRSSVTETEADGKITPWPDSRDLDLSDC

Take `CC(C)(C)OC(=O)N1CCc2c(C(=O)N3CCCCC3)nn(-c3ccc(Cl)cc3Cl)c2/C1=C\c1ccc(F)cc1` [Cpd 4, (7E)-1-(2,4-dichloro-phenyl)-7-(4-fluoro-benzylidene)-3-(piperidine-1-carbonyl)-1,4,5,7-tetrahydro-pyrazolo[3,4-c]pyridine-6-carboxylic acid tert-butyl ester]: the inhibition at 0.2 µM on human CB2 receptor is 18%; on human CB1 receptor (test concentration of 0.2 μM, for compounds without an IC50 binding value, read-out: Cannabinoid CB1 Receptor Binding percent inhibition), 39%.
Consider `CC(C)(C)OC(=O)N1CCc2c(C(=O)NN3CCCCC3)nn(-c3ccc(Cl)cc3Cl)c2/C1=C\c1ccc(F)cc1` [Cpd 3, (7E)-1-(2,4-dichloro-phenyl)-7-(4-fluoro-benzylidene)-3-(piperidin-1-ylcarbamoyl)-1,4,5,7-tetrahydro-pyrazolo[3,4-c]pyridine-6-carboxylic acid tert-butyl ester], for which the inhibition at 0.2 µM on human CB2 receptor was determined as 13%. Besides, the IC50 at human CB1 receptor is 12 nM.
Taken in the same sequence, the figures for `C[C@@H](NC(=O)c1nn(-c2ccc(Cl)cc2Cl)c2c1CCN(C(=O)OC(C)(C)C)/C2=C/c1ccc(F)cc1)c1ccccc1` [Cpd 1, (7E)-1-(2,4-dichloro-phenyl)-7-(4-fluoro-benzylidene)-3-[(1R)-1-phenyl-ethylcarbamoyl]-1,4,5,7-tetrahydro-pyrazolo[3,4-c]pyridine-6-carboxylic acid tert-butyl ester] were 35% and 10 nM.
Taken in the same sequence, the figures for `COC(=O)N1CCc2c(C(=O)NC(C)c3ccccn3)nn(-c3ccc(Cl)cc3Cl)c2/C1=C\c1ccc(F)cc1` (stereo not shown) [Cpd 5, (7E)-1-(2,4-dichloro-phenyl)-7-(4-fluoro-benzylidene)-3-(1-pyridin-2-yl-ethylcarbamoyl)-1,4,5,7-tetrahydro-pyrazolo[3,4-c]pyridine-6-carboxylic acid methyl ester] were 17% and 33 nM.
Taken in the same sequence, the figures for `CC(NC(=O)c1nn(-c2ccc(Cl)cc2Cl)c2c1CCN(C(=O)OC(C)(C)C)/C2=C/c1ccc(F)cc1)c1ccccn1` (stereo not shown) [Cpd 2, (7E)-1-(2,4-dichloro-phenyl)-7-(4-fluoro-benzylidene)-3-(1-pyridin-2-yl-ethylcarbamoyl)-1,4,5,7-tetrahydro-pyrazolo[3,4-c]pyridine-6-carboxylic acid tert-butyl ester] were 13% and 48 nM.

(Values after patent US20070254911A1, “Tetrahydro-Pyrazolo[3,4-c]Pyridine Cannabinoid Modulators” (priority 2006, published 2007).)
